This is an account of results in ChEMBL document CHEMBL1149135, “Aza-peptide Michael acceptors: a new class of inhibitors specific for caspases and other clan CD cysteine proteases” (J Med Chem, 2004).

In assay [1] the target is T1, Caspase-3 (Homo sapiens) (UniProt P42574).
T1 sequence (whole entry): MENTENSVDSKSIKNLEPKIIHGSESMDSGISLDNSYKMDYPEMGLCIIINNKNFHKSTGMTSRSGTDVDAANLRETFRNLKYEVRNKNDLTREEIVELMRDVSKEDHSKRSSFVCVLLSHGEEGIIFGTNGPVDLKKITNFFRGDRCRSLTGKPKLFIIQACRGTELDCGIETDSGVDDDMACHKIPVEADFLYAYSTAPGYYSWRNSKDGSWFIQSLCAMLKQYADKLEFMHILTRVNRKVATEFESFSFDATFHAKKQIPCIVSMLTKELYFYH
In words: Compound was evaluated for potent inhibition of caspase-3.

The target in assay [2] is T2, Caspase-6 (Homo sapiens) (UniProt P55212).
T2 sequence (whole entry): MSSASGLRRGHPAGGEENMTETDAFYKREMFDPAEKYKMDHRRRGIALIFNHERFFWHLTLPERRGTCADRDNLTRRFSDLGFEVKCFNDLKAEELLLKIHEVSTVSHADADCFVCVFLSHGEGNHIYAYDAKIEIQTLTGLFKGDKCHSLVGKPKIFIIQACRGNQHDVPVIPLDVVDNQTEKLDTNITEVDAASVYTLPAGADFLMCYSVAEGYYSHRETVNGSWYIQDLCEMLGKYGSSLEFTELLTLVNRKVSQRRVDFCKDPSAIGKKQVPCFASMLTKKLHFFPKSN
In words: Compound was evaluated for potent inhibition of caspase-6.

Assay [3] addresses Caspase-8 (Homo sapiens) (UniProt Q14790). Briefly: Compound was evaluated for potent inhibition of caspase-8.
Assay [4] concerns Clostripain (Clostridium histolyticum). In words: Compound was evaluated for irreversible inhibition of clostripain.
Assay [5] relates to Lys-gingipain (Porphyromonas gingivalis). Briefly: Compound was evaluated for irreversible inhibition of Lys-gingipain.

Chain of Caspase-8 (Homo sapiens) (Q14790 217-374 limits assumed): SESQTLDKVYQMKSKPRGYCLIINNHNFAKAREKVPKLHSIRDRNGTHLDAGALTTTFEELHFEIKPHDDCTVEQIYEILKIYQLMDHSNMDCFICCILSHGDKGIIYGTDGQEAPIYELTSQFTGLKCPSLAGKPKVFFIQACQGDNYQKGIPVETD
Chain of Caspase-8 (Homo sapiens) (Q14790 385-479 limits assumed): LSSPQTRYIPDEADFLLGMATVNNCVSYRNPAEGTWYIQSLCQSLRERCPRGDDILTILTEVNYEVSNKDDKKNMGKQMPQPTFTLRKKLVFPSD

With `CCOC(=O)/C=C/C(=O)N(CC(=O)O)NC(=O)[C@@H](NC(=O)[C@H](CCC(=O)O)NC(=O)[C@H](CC(=O)O)NC(=O)OCc1ccccc1)C(C)C`, the k2 was found to be 2.13e+06 M⁻¹ s⁻¹ in assay [1], 35600 M⁻¹ s⁻¹ in assay [2] and 273000 M⁻¹ s⁻¹ in assay [3].

For the molecule `CC(C)[C@H](NC(=O)[C@H](CCC(=O)O)NC(=O)[C@H](CC(=O)O)NC(=O)OCc1ccccc1)C(=O)NN(CC(=O)O)C(=O)/C=C/C(=O)OCc1ccccc1`, the k2 amounted to 1.7e+06 M⁻¹ s⁻¹ in assay [1], 8470 M⁻¹ s⁻¹ in assay [2] and 121000 M⁻¹ s⁻¹ in assay [3].

In the case of `CC(C)C[C@H](NC(=O)OCc1ccccc1)C(=O)N[C@@H](CCC(=O)O)C(=O)N[C@H](C(=O)NN(CC(=O)O)C(=O)/C=C/C(=O)OCc1ccccc1)[C@@H](C)O`, the k2 in assay [1] amounted to 4600 M⁻¹ s⁻¹; in assay [2] it was 47600 M⁻¹ s⁻¹; in assay [3], 98400 M⁻¹ s⁻¹.

Regarding `CCOC(=O)/C=C/C(=O)N(CCCCN)NC(=O)[C@H](CC(C)C)NC(=O)OCCc1ccccc1`, the k2 in assay [4] was found to be 40800 M⁻¹ s⁻¹; in assay [5], 3.28e+06 M⁻¹ s⁻¹.

`CCOC(=O)/C=C/C(=O)N(CC(=O)O)NC(=O)[C@@H](NC(=O)[C@H](CCC(=O)O)NC(=O)[C@H](CC(C)C)NC(=O)OCc1ccccc1)[C@@H](C)O`: the k2 stood at 5560 M⁻¹ s⁻¹ in assay [1], 18700 M⁻¹ s⁻¹ in assay [2] and 237000 M⁻¹ s⁻¹ in assay [3].

For `CCOC(=O)/C=C/C(=O)N(CCCN)NC(=O)[C@H](CC(C)C)NC(=O)OCCc1ccccc1`, the k2 in assay [4] worked out at 788 M⁻¹ s⁻¹; in assay [5], 927000 M⁻¹ s⁻¹.

`CC(C)[C@H](NC(=O)[C@H](CCC(=O)O)NC(=O)[C@H](CC(=O)O)NC(=O)OCc1ccccc1)C(=O)NN(CC(=O)O)C(=O)/C=C/C(=O)N(C)Cc1ccccc1`: the k2 was 2.64e+06 M⁻¹ s⁻¹ in assay [1], 9500 M⁻¹ s⁻¹ in assay [2] and 90300 M⁻¹ s⁻¹ in assay [3].

Regarding `CC(C)C[C@H](NC(=O)OCc1ccccc1)C(=O)N[C@@H](CCC(=O)O)C(=O)N[C@H](C(=O)NN(CC(=O)O)C(=O)/C=C/C(=O)N(C)Cc1ccccc1)[C@@H](C)O`, the k2 in assay [1] came to 6000 M⁻¹ s⁻¹; in assay [2] it was 10800 M⁻¹ s⁻¹; in assay [3] it was 169000 M⁻¹ s⁻¹.

As to `CC(C)[C@H](NC(=O)[C@H](CCC(=O)O)NC(=O)[C@H](CC(=O)O)NC(=O)OCc1ccccc1)C(=O)NN(CC(=O)O)C(=O)/C=C/C(=O)NCc1ccccc1`, the k2 came out at 1.75e+06 M⁻¹ s⁻¹ in assay [1], 3210 M⁻¹ s⁻¹ in assay [2] and 78200 M⁻¹ s⁻¹ in assay [3].
